Measurements from patent publication EP0550006B1, “Use of N-acyl derivatives of aminoalcohols for the manufacture of a medicament for the treatment of pathologies involving mast cells” (LIFEGROUP S.p.A., priority 1991, dated 1993).
No end group written: not given here.

Tests used:
mast cells [1] = assay: in vivo mast cell degranulation induced by substance P, general subcutaneous administration; parameters: species or system Sprague Dawley rats; settings: rat; compound 20 mg/kg subcutaneous, 30 minutes before substance P 10^-6 M s.c. in the auricular pinna; average of 500-800 cells; solvent group 12
Experimental: In this case 2-weeks old rats (Sprague Dawley, Charles River) were firstly subcutaneously treated with 20 mg/kg of the substances under question and after 30 minutes were exposed to the degranulation stimulus by s.c. administration of substance P (10^-6 M) in the auricular pinna. Then the rats were sacrificed and the ear pinna removed for histological assessment of mast cell degranulation by counting the number of degranulated mast cells.
The biological parameter of evaluation was the percentage of degranulated mast cells.
In Tab. 2 the obtained results are reported on an average of 500-800 cells.

water solubility = settings: for water solubility: result in words; for solubility: water
[2] = organic solvent solubility; settings: for solubility: organic solvent or mixture
physchem = settings: organic solvent or mixture
mast cells [3] = assay: in vivo mast cell degranulation induced by substance P, intradermal (topical) application on the auricular pinna; parameters: species or system Sprague Dawley rats; settings: for % of degranulated mast cells: rat auricular pinna, compound 0.5 mg/kg intradermal, 10 minutes before substance P 10^-4 M intradermal, sacrifice after 30', solvent group 8
Experimental: After 10 minutes a local administration of substance P ( 10^-4 M), able to induce a mast cells degranulation response, was carried out still by intradermal route. […] The inhibition degree in mast cells degranulation in the tissues of the animals treated with the compounds under question. in comparison with that of animals treated only with the physiological degranulation factor (substance P) was considered as a parameter for the biological activity.

[4] = test system: Peritoneal mast cells of rat; assay: in vitro mast cell degranulation induced by substance P; format: cell-based; settings: compound 10^-5 M, 30 minutes incubation, then substance P 10^-4M
Experimental: Peritoneal mast cells of rat were taken according to the standard methodology described by Lagunoff (1975, Tech. Biochem. Biophys. Morphol., 2, pp. 289-305).
The cells were then cultured in MEM which 10% fetal calf serum was added to and then incubated in a Haereus^R incubator for 30 minutes.
The derivatives under question at the concentration of 10^-5 M were added to the incubation medium.
At the end of the incubation, the physiological degranulation stimulus represented also in the case by the substance P (10^-4M) was added.
The cells were then centrifugated in order to remove the supernatant formed by the incubation medium and were placed onto a slide after coloration with toluidine blue, for the analysis of the morphological aspect at the optical microscope.
Also under these conditions the parameter to be considered was the percentage of degranulated cells after stimulation with the Substance P.

inflammatory response [5] = settings: tested animal; prior art; cited from earlier work
inflammatory response [6] = settings: substance extracted from yolk egg, administered to man; Coburn et al 1960; cited from earlier work
[7] = test system: human rheumatoid arthritis; settings: Perlik et al. 1974; cited from earlier work

CCCCCCCCCCCCCCCC(=O)NCC(C)O (stereo not drawn) [Example 3, N-(2-hydroxypropyl)-palmitamide]
% of degranulated mast cells (mast cells [1]): 49.5%
water solubility (water solubility): poorly soluble
solubility ([2]; dmso): > 3000 µg/mL
solubility ([2]; n-octanol): > 10000 µg/mL

CCCCCCCCCCCCCCCCCC(=O)NCCO [Example 4, N-(2-hydroxyethyl)-stearoylamide]
% of degranulated mast cells (mast cells [1]): 60%
solubility (physchem; chloroform): > 5000 µg/mL

CCCCCCCC/C=C\CCCCCCCC(=O)N(CCO)CCO [Example 10, N,N -bis-(2-hydroxyethyl)-oleoylamide]
% of degranulated mast cells (mast cells [1]): 44%
water solubility (water solubility): poorly soluble
solubility ([2]; chloroform): > 10000 µg/mL
solubility ([2]; dmso): > 10000 µg/mL

O=C(NCCO)c1ccccc1 [Example 8, N-(2-hydroxyethyl)-benzoylamide]
% of degranulated mast cells (mast cells [1]): 48.8%
solubility (water solubility): > 10000 µg/mL
solubility ([2]; dmso): > 10000 µg/mL
solubility ([2]; ethanol): > 10000 µg/mL

CCCCCCCCCCCCCCCC(=O)NCCO [Example 1, N-palmitoylethanolamide]
% of degranulated mast cells (mast cells [3]): 50%
% of degranulated mast cells (mast cells [1]): 65%
% of degranulated mast cells [4]: 52%
inhibition of the inflammatory response (inflammatory response [5]): generic activity in inhibiting the inflammatory response
therapeutic effect (inflammatory response [6]): not significant
therapeutic efficacy [7]: beneficial effects were not so remarkable
water solubility (water solubility): insoluble
solubility in organic solvents ([2]; solvents in which soluble, in words): hot methanol, CHCl3, DMSO

O=C(CCCCC1CCSS1)NCCO (racemic) [Example 15, N-(2-hydroxyethy)-DL-α-lipoamide]
% of degranulated mast cells (mast cells [1]): 40%
solubility (water solubility): > 10000 µg/mL
solubility ([2]; ethanol): > 10000 µg/mL

O=C(CCCO)NCCO [Example 7, N-(2-hydroxyethyl)-4-hydroxybutirramide]
solubility (water solubility): > 10000 µg/mL
solubility ([2]; dmso): > 10000 µg/mL
solubility ([2]; ethanol): > 10000 µg/mL

CCCCC/C=C\C/C=C\CCCCCCCC(=O)N(CCO)CCO [Example 11, N,N -bis-(2-hydroxyethyl)-linoleoylamide]
% of degranulated mast cells (mast cells [1]): 71%
water solubility (water solubility): poorly soluble
solubility ([2]; chloroform): > 10000 µg/mL
solubility ([2]; ethanol): > 10000 µg/mL

CCCCCCCCCCCCCCCC(=O)N(CCO)CCO [Example 2, N,N-bis(2-hydroxyethyl)-palmitamide]
% of degranulated mast cells (mast cells [3]): 35%
% of degranulated mast cells (mast cells [1]): 48%
% of degranulated mast cells [4]: 30%
water solubility (water solubility): poorly soluble
solubility ([2]; dmso): > 10000 µg/mL

O=C(c1ccccc1)N(CCO)CCO [Example 9, N,N -bis-(2-hydroxyethyl)-benzoylamide]
% of degranulated mast cells (mast cells [1]): 36.8%
solubility (water solubility): > 10000 µg/mL
solubility ([2]; dmso): > 10000 µg/mL
solubility ([2]; ethanol): > 10000 µg/mL

CCCCCCCCCCCC(=O)NCCO [Example 5, N-(2-hydroxyethyl)-lauroylamide]
% of degranulated mast cells (mast cells [1]): 54%
water solubility (water solubility): poorly soluble
solubility ([2]; chloroform): > 10000 µg/mL
solubility ([2]; dmso): > 10000 µg/mL

substance P (RPKPQQFFGLM; ends and bridges not checked; UniProt P20366 58-68, looked up) [reference compound]
% of degranulated mast cells (mast cells [3]): 94%
mast cells degranulation (morphological analysis) (mast cells [3]; rat pinna, intradermal, result in words): induced a degranulation in the majority of mast cells
% of degranulated mast cells (mast cells [1]): 92%
% of degranulated mast cells [4]: 96%

CCCCCCCCCCCC(=O)N(CCO)CCO [Example 6, N,N-bis(2-hydroxyethyl)-lauroylamide]
% of degranulated mast cells (mast cells [1]): 28%
water solubility (water solubility): poorly soluble
solubility ([2]; chloroform): > 10000 µg/mL
solubility ([2]; dmso): > 10000 µg/mL

O=C(NCCO)c1ccccc1O [Example 13, N-(2-hydroxethyl)-salicylamide]
% of degranulated mast cells (mast cells [1]): 38%

O=C(NCCO)c1ccncc1 [Example 14, N-(2-hydroxyethyl)-isonicotinamide]
solubility (water solubility): > 10000 µg/mL
solubility ([2]; methanol): > 10000 µg/mL

C[C@H](CCC(=O)NCCO)[C@H]1CC[C@H]2[C@@H]3CC[C@@H]4C[C@H](O)CC[C@]4(C)[C@H]3C[C@H](O)[C@]12C [Example 12, N-(2-hydroxyethyl)-desoxycholamide]
solubility (physchem; dmso): > 10000 µg/mL
